# From ChEMBL document CHEMBL4418490, “N-(heteroaryl)-sulfonamide derivatives useful as s100-inhibitors” (2018)
# Activity calls are given as the source filed them. No cut-off for these calls is given here.
# How the values were obtained:
# MC-38 [1] = assay: Antitumor activity against C215 transfected MC38 cells implanted in C57BL/6 mouse assessed as inhibition of tumor growth at 30 mg/kg, po dosed daily for 15 days starting following day of tumor inoculation; format: functional, organism-based
# [2] = Plasma concentration in C215 transfected MC38 cells implanted C57BL/6 mouse at 1 mg/kg, iv dosed as cassette formulation and measured at 0.083 hrs after post dose by LC-MS analysis; format: ADME, organism-based
# [3] = Plasma concentration in C215 transfected MC38 cells implanted C57BL/6 mouse at 1 mg/kg, iv dosed as cassette formulation and measured at 0.5 hrs after post dose by LC-MS analysis; format: ADME, organism-based
# [4] = Plasma concentration in C215 transfected MC38 cells implanted C57BL/6 mouse at 1 mg/kg, iv dosed as cassette formulation and measured at 1 hr after post dose by LC-MS analysis; format: ADME, organism-based
# [5] = Plasma concentration in C215 transfected MC38 cells implanted C57BL/6 mouse at 1 mg/kg, iv dosed as cassette formulation and measured at 2 hrs after post dose by LC-MS analysis; format: ADME, organism-based
# [6] = Plasma concentration in C215 transfected MC38 cells implanted C57BL/6 mouse at 1 mg/kg, iv dosed as cassette formulation and measured at 4 hrs after post dose by LC-MS analysis; format: ADME, organism-based
# [7] = Plasma concentration in C215 transfected MC38 cells implanted C57BL/6 mouse at 1 mg/kg, iv dosed as cassette formulation and measured at 7 hrs after post dose by LC-MS analysis; format: ADME, organism-based
# [8] = Plasma concentration in C215 transfected MC38 cells implanted C57BL/6 mouse at 5 mg/kg, po dosed as cassette formulation and measured at 0.5 hrs after post dose by LC-MS analysis; format: ADME, organism-based
# [9] = Plasma concentration in C215 transfected MC38 cells implanted C57BL/6 mouse at 5 mg/kg, po dosed as cassette formulation and measured at 1 hr after post dose by LC-MS analysis; format: ADME, organism-based
# [10] = Plasma concentration in C215 transfected MC38 cells implanted C57BL/6 mouse at 5 mg/kg, po dosed as cassette formulation and measured at 2 hrs after post dose by LC-MS analysis; format: ADME, organism-based
# [11] = Plasma concentration in C215 transfected MC38 cells implanted C57BL/6 mouse at 5 mg/kg, po dosed as cassette formulation and measured at 4 hrs after post dose by LC-MS analysis; format: ADME, organism-based
# [12] = Plasma concentration in C215 transfected MC38 cells implanted C57BL/6 mouse at 5 mg/kg, po dosed as cassette formulation and measured at 7 hrs after post dose by LC-MS analysis; format: ADME, organism-based
# [13] = Plasma concentration in C215 transfected MC38 cells implanted C57BL/6 mouse assessed as N-(5-bromo-3-hydroxypyrazin-2-yl)-1-(3,4-dichlorophenyl)methanesulfonamide level at 1 mg/kg, iv dosed as cassette formulation and measured at 0.083 hrs after post dose by LC-MS analysis; format: ADME, organism-based; details: in vivo
# [14] = Plasma concentration in C215 transfected MC38 cells implanted C57BL/6 mouse assessed as N-(5-bromo-3-hydroxypyrazin-2-yl)-1-(3,4-dichlorophenyl)methanesulfonamide level at 1 mg/kg, iv dosed as cassette formulation and measured at 0.5 hrs after post dose by LC-MS analysis; format: ADME, organism-based; details: in vivo
# [15] = Plasma concentration in C215 transfected MC38 cells implanted C57BL/6 mouse assessed as N-(5-bromo-3-hydroxypyrazin-2-yl)-1-(3,4-dichlorophenyl)methanesulfonamide level at 1 mg/kg, iv dosed as cassette formulation and measured at 1 hr after post dose by LC-MS analysis; format: ADME, organism-based; details: in vivo
# [16] = Plasma concentration in C215 transfected MC38 cells implanted C57BL/6 mouse assessed as N-(5-bromo-3-hydroxypyrazin-2-yl)-1-(3,4-dichlorophenyl)methanesulfonamide level at 1 mg/kg, iv dosed as cassette formulation and measured at 2 hrs after post dose by LC-MS analysis; format: ADME, organism-based; details: in vivo
# [17] = Plasma concentration in C215 transfected MC38 cells implanted C57BL/6 mouse assessed as N-(5-bromo-3-hydroxypyrazin-2-yl)-1-(3,4-dichlorophenyl)methanesulfonamide level at 1 mg/kg, iv dosed as cassette formulation and measured at 4 hrs after post dose by LC-MS analysis; format: ADME, organism-based; details: in vivo
# [18] = Plasma concentration in C215 transfected MC38 cells implanted C57BL/6 mouse assessed as N-(5-bromo-3-hydroxypyrazin-2-yl)-1-(3,4-dichlorophenyl)methanesulfonamide level at 1 mg/kg, iv dosed as cassette formulation and measured at 7 hrs after post dose by LC-MS analysis; format: ADME, organism-based; details: in vivo
# [19] = Plasma concentration in C215 transfected MC38 cells implanted C57BL/6 mouse assessed as N-(5-bromo-3-hydroxypyrazin-2-yl)-1-(3,4-dichlorophenyl)methanesulfonamide level at 5 mg/kg, po dosed as cassette formulation and measured at 0.5 hrs after post dose by LC-MS analysis; format: ADME, organism-based; details: in vivo
# [20] = Plasma concentration in C215 transfected MC38 cells implanted C57BL/6 mouse assessed as N-(5-bromo-3-hydroxypyrazin-2-yl)-1-(3,4-dichlorophenyl)methanesulfonamide level at 5 mg/kg, po dosed as cassette formulation and measured at 1 hr after post dose by LC-MS analysis; format: ADME, organism-based; details: in vivo
# [21] = Plasma concentration in C215 transfected MC38 cells implanted C57BL/6 mouse assessed as N-(5-bromo-3-hydroxypyrazin-2-yl)-1-(3,4-dichlorophenyl)methanesulfonamide level at 5 mg/kg, po dosed as cassette formulation and measured at 2 hrs after post dose by LC-MS analysis; format: ADME, organism-based; details: in vivo
# [22] = Plasma concentration in C215 transfected MC38 cells implanted C57BL/6 mouse assessed as N-(5-bromo-3-hydroxypyrazin-2-yl)-1-(3,4-dichlorophenyl)methanesulfonamide level at 5 mg/kg, po dosed as cassette formulation and measured at 4 hrs after post dose by LC-MS analysis; format: ADME, organism-based; details: in vivo
# [23] = Plasma concentration in C215 transfected MC38 cells implanted C57BL/6 mouse assessed as N-(5-bromo-3-hydroxypyrazin-2-yl)-1-(3,4-dichlorophenyl)methanesulfonamide level at 5 mg/kg, po dosed as cassette formulation and measured at 7 hrs after post dose by LC-MS analysis; format: ADME, organism-based; details: in vivo
# MC-38 [24] = assay: Antitumor activity against C215 transfected MC38 cells implanted in C57BL/6 mouse assessed as inhibition of tumor growth at 30 mg/kg, po dosed daily for 16 days starting following day of tumor inoculation; format: functional, organism-based
compound,measurement,setting,value
O=S(=O)(Nc1cnccc1O)c1cc(Cl)sc1Cl,TGI,MC-38 [1],Active
COc1nc(Br)cnc1NS(=O)(=O)Cc1ccc(Cl)c(Cl)c1,concentration at 0.083 h,[2],25.2 µM
same,concentration at 0.5 h,[3],16.8 µM
same,concentration at 1 h,[4],17.5 µM
same,concentration at 2 h,[5],14.9 µM
same,concentration at 4 h,[6],9.2 µM
same,concentration at 7 h,[7],6.2 µM
same,concentration at 0.5 h,[8],51.7 µM
same,concentration at 1 h,[9],69.4 µM
same,concentration at 2 h,[10],78.9 µM
same,concentration at 4 h,[11],59.4 µM
same,concentration at 7 h,[12],73.5 µM
same,concentration,[13],0.12 µM
same,concentration,[14],0.32 µM
same,concentration,[15],0.32 µM
same,concentration,[16],0.32 µM
same,concentration,[17],0.21 µM
same,concentration,[18],0.2 µM
same,concentration,[19],0.57 µM
same,concentration,[20],0.86 µM
same,concentration,[21],0.8 µM
same,concentration,[22],0.63 µM
same,concentration,[23],1.1 µM
COc1ncc(S(=O)(=O)Nc2cncc(Cl)c2O)cc1Br,TGI,MC-38 [24],Active
